Experimental data reported in paper PMC1971073, “Comparative genomics of bacterial and plant folate synthesis and salvage: predictions and validations” (BMC Genomics, 2007).

Target: T1, Arabidopsis ADCS (PabAa-PabAb) (Arabidopsis thaliana, UniProt Q8LPN3)
T1 construct: bifunctional PabAa-PabAb ADC synthase in pLOI707HE; extract of E. coli BN1163 (pabA pabB mutant)
T1 sequence (Q8LPN3 46-919): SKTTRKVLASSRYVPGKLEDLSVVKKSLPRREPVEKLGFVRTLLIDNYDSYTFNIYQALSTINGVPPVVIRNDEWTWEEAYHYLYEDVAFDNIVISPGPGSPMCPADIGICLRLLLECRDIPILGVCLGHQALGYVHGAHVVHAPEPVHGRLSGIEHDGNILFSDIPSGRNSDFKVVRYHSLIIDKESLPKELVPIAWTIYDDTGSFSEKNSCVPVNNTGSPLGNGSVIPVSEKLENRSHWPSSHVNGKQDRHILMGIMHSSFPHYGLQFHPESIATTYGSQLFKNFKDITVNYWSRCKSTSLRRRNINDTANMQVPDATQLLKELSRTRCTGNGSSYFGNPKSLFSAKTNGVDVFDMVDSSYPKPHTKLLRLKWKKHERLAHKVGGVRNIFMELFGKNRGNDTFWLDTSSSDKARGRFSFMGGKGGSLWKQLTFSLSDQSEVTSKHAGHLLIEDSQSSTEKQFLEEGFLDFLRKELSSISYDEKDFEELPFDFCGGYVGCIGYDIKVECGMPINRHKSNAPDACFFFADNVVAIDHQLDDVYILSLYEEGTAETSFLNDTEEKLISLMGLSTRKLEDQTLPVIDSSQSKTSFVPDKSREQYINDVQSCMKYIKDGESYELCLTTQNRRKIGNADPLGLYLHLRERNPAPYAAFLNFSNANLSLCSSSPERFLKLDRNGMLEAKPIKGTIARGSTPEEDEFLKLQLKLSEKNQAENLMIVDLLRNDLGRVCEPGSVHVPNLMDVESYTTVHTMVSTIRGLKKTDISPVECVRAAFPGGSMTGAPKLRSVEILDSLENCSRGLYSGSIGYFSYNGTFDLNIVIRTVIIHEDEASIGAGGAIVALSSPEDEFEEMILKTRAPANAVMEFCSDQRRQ
Test: pABA formation in cell extract, coupled to E. coli PabC (ADC lyase), HPLC with fluorescence detection
Format: biochemical
Conditions: E. coli PabC extract added, 37 °C, 1 h

Row | SMILES | pABA formation in cell extract, coupled to E. coli PabC (ADC lyase), HPLC with f (glutamine as amino donor) | pABA formation in cell extract, coupled to E. coli PabC (ADC lyase), HPLC with f (chorismate as co-substrate)
1 | C=C(O[C@@H]1C=C(C(=O)O)C=C[C@H]1O)C(=O)O [chorismate] | Arabidopsis PabAa-PabAb formed pABA only if PabAc was added | 
2 | NC(=O)CC[C@H](N)C(=O)O [glutamine] |  | Arabidopsis PabAa-PabAb formed pABA only if PabAc was added
